Measurements reported in patent publication US10345295B2, “Device and method for point-of-care diagnostics and antibiotic resistance identification, and applications thereof” (CORNELL UNIVERSITY, priority 2015, dated 2019).

Tested on: attenuated E. coli K12 strain with a kanamycin resistance gene
Assay: colorimetric phenotypic antibiotic susceptibility test (phenol red) in capillary tubes
Assay type: cell-based
Settings: bacteria culture incubated in capillary tubes with added antibiotic; LB media, 0.05% phenol red; read at the 4-hour mark
Protocol: According to an embodiment, a colorimetric phenotypic testing approach was utilized to assess the antibiotic susceptibility of an attenuated E. coli K12 strain. The pH indicator phenol red was used to provide a phenotypic indication of bacterial growth. For colorimetric phenotypic testing approach, bacterial growth tests were conducted with small sample volumes in a PDMS microchip. The E. coli strain with a kanamycin resistance gene as a selection marker was first streaked and incubated overnight on LB agar plates containing kanamycin. Single colonies were subsequently picked and propagated in liquid bulk culture. Following overnight bulk culture to stationary phase, small volumes (˜1 μL) of culture were separately incubated on the PDMS chip in wells each containing a 19 μL mixture of fresh LB media, 0.05% phenol red, and the antibiotics kanamycin (control) and ampicillin (test). The metabolic activity of viable bacteria leads to an accumulation of organic acids in the growth media, which causes the phenol red to change in color from red to yellow, which is expected for the control group as the E. coli stain is kanamycin resistant.
A similar experiment was conducted by incubating the bacteria culture in capillary tubes designed to hold microliters of liquid. […]

Compound: CC1(C)S[C@@H]2[C@H](NC(=O)[C@H](N)c3ccccc3)C(=O)N2[C@H]1C(=O)O [ampicillin]
- color change of phenol red pH indicator (phenotypic indication of bacterial growth): No color change
